Experiments:
Assay type in all cases: in vivo, human
[1] = Pharmacokinetic test of MN-08 in clinical trial, single oral dose
Experimental: In the clinical trial of amantadine mononitrate compound MN-08, the pharmacokinetic test included a total of 8 dose groups (6 mg, 12 mg, 42 mg, 60 mg, 78 mg, 96 mg, 114 mg, and 132 mg).
The subjects received a single oral dose of MN-08 at doses of 6 mg, 12 mg, 42 mg, 60 mg, 78 mg, 96 mg, 114 mg, and 132 mg, respectively. […] Most existing antihypertensive drugs have a short half-life and require frequent administration, resulting in poor patient compliance. In contrast, the amantadine mononitrate compound MN-08 of the present invention has a half-life of more than 20 hours, a long drug action time, and can reduce the number of administration times and improve patient compliance compared to other existing hypertensive drugs.

[2] = test system: blood pressure of subjects; experiment: Effect of multiple administrations of MN-08 on blood pressure of subjects (7 days); details: for DP / SP: Subject 14; for DP: baseline 84 mmHg; for SP: baseline 122 mmHg
Source text: (§1) All subjects in the following embodiments have signed informed consent forms, which comply with medical ethics regulations. According to the relevant provisions of Chinese Guidelines for the Prevention and Treatment of Hypertension (2018 Revision), the values measured for hypertension are the average blood pressure measured three times on a different day without the use of antihypertensive drugs. Therefore, in this embodiment, the baseline blood pressure of the subjects before administration is set as the average blood pressure measured at three different times: screening period, occupancy period, and 1 hour before administration, as shown in Tables 1 to 3.
Multiple dosing trials: Participants in each dose group fasted for at least 10 hours before administration, without water deprivation overnight. Each group of subjects received oral administration of the test drug on an empty stomach from day 1 to day 6, twice a day (with an interval of 12 hours and at least 1 hour on an empty stomach before the second administration), and only once in the morning on day 7. A total of 13 doses were administered. The first administration time every day is around 8 am, taken with 240 mL of water. Taking subject 14 as an example, the effect of multiple doses of MN-08 (7 days) on subject blood pressure was investigated.

[3] = test system: blood pressure of subjects; experiment: Effect of multiple administration of MN-08 on blood pressure of subjects (3 days)
Source text: as §1
Multiple dosing trials: Participants in each dose group fasted for at least 10 hours before administration, without water deprivation overnight. Each group of subjects took the test drug orally on an empty stomach twice a day (with an interval of 12 hours and at least 1 hour on an empty stomach before the second administration). The first administration time every day is around 8 am, taken with 240 mL of water. Taking subjects 15-17 as an example, the effect of multiple doses of MN-08 (3 days) on subjects' blood pressure was investigated.

[4] = 12 mg twice a day, D 1, 2 hrs after 2nd adm.
[5] = 12 mg twice a day, D 1, 4 hrs after 1st adm.
[6] = 12 mg twice a day, D 1, 8 hrs after 1st adm.
[7] = 12 mg twice a day, D 2, 2 hrs after 2nd adm.
[8] = 12 mg twice a day, D 2, 4 hrs after 1st adm.
[9] = 12 mg twice a day, D 2, 8 hrs after 1st adm.
[10] = 12 mg twice a day, D 3, 2 hrs after 2nd adm.
[11] = 12 mg twice a day, D 3, 4 hrs after 1st adm.
[12] = 12 mg twice a day, D 3, 8 hrs after 1st adm.
[13] = 12 mg twice a day, D 4, 2 hrs after 2nd adm.
[14] = 12 mg twice a day, D 4, 4 hrs after 1st adm.
[15] = 12 mg twice a day, D 4, 8 hrs after 1st adm.
[16] = 12 mg twice a day, D 5, 2 hrs after 2nd adm.
[17] = 12 mg twice a day, D 5, 4 hrs after 1st adm.
[18] = 12 mg twice a day, D 5, 8 hrs after 1st adm.
[19] = 12 mg twice a day, D 6, 2 hrs after 2nd adm.
[20] = 12 mg twice a day, D 6, 4 hrs after 1st adm.
[21] = 12 mg twice a day, D 6, 8 hrs after 1st adm.
[22] = 12 mg, once on D 7 after 6 days twice a day, D 7, 4 hrs after adm.
[23] = 12 mg, once on D 7 after 6 days twice a day, D 7, 8 hrs after adm.
[24] = 12 mg, once on D 7 after 6 days twice a day, D 7, 12 hrs after adm.

CCC12CC3CC(N)(C1)CC(CO[N+](=O)[O-])(C3)C2 (stereo not shown) [MN-08]
half-life ([1]; human, in vivo, po, single oral administration, dose range 6 mg to 132 mg, t1/2 extends with increasing dosage): 20 to 30 h
time at which peak concentration was reached ([1]; single oral dose, 6 mg to 132 mg groups): 2.5 to 6.5 h
DP [2, 4]: 73 mmHg
SP [2, 4]: 113 mmHg
DP [2, 5]: 81 mmHg
SP [2, 5]: 122 mmHg
DP [2, 6]: 74 mmHg
SP [2, 6]: 114 mmHg
DP [2, 7]: 77 mmHg
SP [2, 7]: 107 mmHg
DP [2, 8]: 76 mmHg
SP [2, 8]: 115 mmHg
DP [2, 9]: 68 mmHg
SP [2, 9]: 117 mmHg
DP [2, 10]: 73 mmHg
SP [2, 10]: 109 mmHg
DP [2, 11]: 74 mmHg
SP [2, 11]: 114 mmHg
DP [2, 12]: 82 mmHg
SP [2, 12]: 111 mmHg
DP [2, 13]: 73 mmHg
SP [2, 13]: 109 mmHg
DP [2, 14]: 73 mmHg
SP [2, 14]: 109 mmHg
DP [2, 15]: 70 mmHg
SP [2, 15]: 107 mmHg
DP [2, 16]: 74 mmHg
SP [2, 16]: 114 mmHg
DP [2, 17]: 69 mmHg
SP [2, 17]: 106 mmHg
DP [2, 18]: 62 mmHg
SP [2, 18]: 97 mmHg
DP [2, 19]: 77 mmHg
SP [2, 19]: 125 mmHg
DP [2, 20]: 77 mmHg
SP [2, 20]: 118 mmHg
DP [2, 21]: 63 mmHg
SP [2, 21]: 112 mmHg
DP [2, 22]: 77 mmHg
SP [2, 22]: 108 mmHg
DP [2, 23]: 62 mmHg
SP [2, 23]: 102 mmHg
DP [2, 24]: 62 mmHg
SP [2, 24]: 103 mmHg
both systolic and diastolic pressure of the subjects ([2]; twice a day for 7 days, decrease in diastolic greater than in systolic pressure): reduced
DP ([3]; Subject 15, 12 mg twice a day, D 1, 2 hrs after 2nd adm., baseline 75 mmHg): 59 mmHg
SP ([3]; Subject 15, 12 mg twice a day, D 1, 2 hrs after 2nd adm., baseline 108 mmHg): 94 mmHg
DP ([3]; Subject 15, 12 mg twice a day, D 1, 4 hrs after 1st adm., baseline 75 mmHg): 61 mmHg
SP ([3]; Subject 15, 12 mg twice a day, D 1, 4 hrs after 1st adm., baseline 108 mmHg): 96 mmHg
DP ([3]; Subject 15, 12 mg twice a day, D 1, 8 hrs after 1st adm., baseline 75 mmHg): 51 mmHg
SP ([3]; Subject 15, 12 mg twice a day, D 1, 8 hrs after 1st adm., baseline 108 mmHg): 100 mmHg
DP ([3]; Subject 15, 12 mg twice a day, D 2, 2 hrs after 2nd adm., baseline 75 mmHg): 64 mmHg
SP ([3]; Subject 15, 12 mg twice a day, D 2, 2 hrs after 2nd adm., baseline 108 mmHg): 95 mmHg
DP ([3]; Subject 15, 12 mg twice a day, D 2, 4 hrs after 1st adm., baseline 75 mmHg): 56 mmHg
SP ([3]; Subject 15, 12 mg twice a day, D 2, 4 hrs after 1st adm., baseline 108 mmHg): 92 mmHg
DP ([3]; Subject 15, 12 mg twice a day, D 2, 8 hrs after 1st adm., baseline 75 mmHg): 57 mmHg
SP ([3]; Subject 15, 12 mg twice a day, D 2, 8 hrs after 1st adm., baseline 108 mmHg): 108 mmHg
DP ([3]; Subject 15, 12 mg twice a day, D 3, 2 hrs after 2nd adm., baseline 75 mmHg): 65 mmHg
SP ([3]; Subject 15, 12 mg twice a day, D 3, 2 hrs after 2nd adm., baseline 108 mmHg): 105 mmHg
DP ([3]; Subject 15, 12 mg twice a day, D 3, 4 hrs after 1st adm., baseline 75 mmHg): 64 mmHg
SP ([3]; Subject 15, 12 mg twice a day, D 3, 4 hrs after 1st adm., baseline 108 mmHg): 95 mmHg
DP ([3]; Subject 15, 12 mg twice a day, D 3, 8 hrs after 1st adm., baseline 75 mmHg): 57 mmHg
SP ([3]; Subject 15, 12 mg twice a day, D 3, 8 hrs after 1st adm., baseline 108 mmHg): 86 mmHg
DP ([3]; Subject 16, 24 mg twice a day, D 1, 2 hrs after 2nd adm., baseline 81 mmHg): 66 mmHg
SP ([3]; Subject 16, 24 mg twice a day, D 1, 2 hrs after 2nd adm., baseline 118 mmHg): 103 mmHg
DP ([3]; Subject 16, 24 mg twice a day, D 1, 4 hrs after 1st adm., baseline 81 mmHg): 61 mmHg
SP ([3]; Subject 16, 24 mg twice a day, D 1, 4 hrs after 1st adm., baseline 118 mmHg): 97 mmHg
DP ([3]; Subject 16, 24 mg twice a day, D 1, 8 hrs after 1st adm., baseline 81 mmHg): 63 mmHg
SP ([3]; Subject 16, 24 mg twice a day, D 1, 8 hrs after 1st adm., baseline 118 mmHg): 102 mmHg
DP ([3]; Subject 16, 24 mg twice a day, D 2, 2 hrs after 2nd adm., baseline 81 mmHg): 61 mmHg
SP ([3]; Subject 16, 24 mg twice a day, D 2, 2 hrs after 2nd adm., baseline 118 mmHg): 100 mmHg
DP ([3]; Subject 16, 24 mg twice a day, D 2, 4 hrs after 1st adm., baseline 81 mmHg): 69 mmHg
SP ([3]; Subject 16, 24 mg twice a day, D 2, 4 hrs after 1st adm., baseline 118 mmHg): 106 mmHg
DP ([3]; Subject 16, 24 mg twice a day, D 2, 8 hrs after 1st adm., baseline 81 mmHg): 65 mmHg
SP ([3]; Subject 16, 24 mg twice a day, D 2, 8 hrs after 1st adm., baseline 118 mmHg): 99 mmHg
DP ([3]; Subject 16, 24 mg twice a day, D 3, 2 hrs after 2nd adm., baseline 81 mmHg): 69 mmHg
SP ([3]; Subject 16, 24 mg twice a day, D 3, 2 hrs after 2nd adm., baseline 118 mmHg): 98 mmHg
DP ([3]; Subject 16, 24 mg twice a day, D 3, 4 hrs after 1st adm., baseline 81 mmHg): 67 mmHg
SP ([3]; Subject 16, 24 mg twice a day, D 3, 4 hrs after 1st adm., baseline 118 mmHg): 107 mmHg
DP ([3]; Subject 16, 24 mg twice a day, D 3, 8 hrs after 1st adm., baseline 81 mmHg): 63 mmHg
SP ([3]; Subject 16, 24 mg twice a day, D 3, 8 hrs after 1st adm., baseline 118 mmHg): 95 mmHg
DP ([3]; Subject 17, 24 mg twice a day, D 1, 2 hrs after 2nd adm., baseline 87 mmHg): 73 mmHg
SP ([3]; Subject 17, 24 mg twice a day, D 1, 2 hrs after 2nd adm., baseline 126 mmHg): 107 mmHg
DP ([3]; Subject 17, 24 mg twice a day, D 1, 4 hrs after 1st adm., baseline 87 mmHg): 81 mmHg
SP ([3]; Subject 17, 24 mg twice a day, D 1, 4 hrs after 1st adm., baseline 126 mmHg): 126 mmHg
DP ([3]; Subject 17, 24 mg twice a day, D 1, 8 hrs after 1st adm., baseline 87 mmHg): 66 mmHg
SP ([3]; Subject 17, 24 mg twice a day, D 1, 8 hrs after 1st adm., baseline 126 mmHg): 112 mmHg
DP ([3]; Subject 17, 24 mg twice a day, D 2, 2 hrs after 2nd adm., baseline 87 mmHg): 63 mmHg
SP ([3]; Subject 17, 24 mg twice a day, D 2, 2 hrs after 2nd adm., baseline 126 mmHg): 94 mmHg
DP ([3]; Subject 17, 24 mg twice a day, D 2, 4 hrs after 1st adm., baseline 87 mmHg): 73 mmHg
SP ([3]; Subject 17, 24 mg twice a day, D 2, 4 hrs after 1st adm., baseline 126 mmHg): 102 mmHg
DP ([3]; Subject 17, 24 mg twice a day, D 2, 8 hrs after 1st adm., baseline 87 mmHg): 68 mmHg
SP ([3]; Subject 17, 24 mg twice a day, D 2, 8 hrs after 1st adm., baseline 126 mmHg): 115 mmHg
DP ([3]; Subject 17, 24 mg twice a day, D 3, 2 hrs after 2nd adm., baseline 87 mmHg): 74 mmHg
SP ([3]; Subject 17, 24 mg twice a day, D 3, 2 hrs after 2nd adm., baseline 126 mmHg): 110 mmHg
DP ([3]; Subject 17, 24 mg twice a day, D 3, 4 hrs after 1st adm., baseline 87 mmHg): 70 mmHg
SP ([3]; Subject 17, 24 mg twice a day, D 3, 4 hrs after 1st adm., baseline 126 mmHg): 107 mmHg
DP ([3]; Subject 17, 24 mg twice a day, D 3, 8 hrs after 1st adm., baseline 87 mmHg): 76 mmHg
SP ([3]; Subject 17, 24 mg twice a day, D 3, 8 hrs after 1st adm., baseline 126 mmHg): 111 mmHg
effect on blood pressure of the subjects ([3]; continuous administration for 3 days, twice a day, 12 mg and 24 mg groups, decrease in diastolic greater than in systolic pressure): can lower the blood pressure

From patent US20260242330A1, “USE OF AN AMANTADINE MONONITRATE COMPOUND IN MANUFACTURE OF A MEDICAMENT FOR THE PREVENTION AND TREATMENT OF HYPERTENSION” (GUANGZHOU MAGPIE PHARMACEUTICALS CO., LTD., priority 2022, published 2026)
